What was measured:
Acinetobacter baumannii = test: Bactericidal activity against Acinetobacter baumannii incubated for overnight; format: functional
Staphylococcus aureus = test: Bactericidal activity against Staphylococcus aureus incubated for overnight; format: functional
[1] = Hemolytic activity in human RBC at 100 ug/ml incubated for 1 hr; format: toxicity, cell-based, Erythrocyte; conditions: human red blood cells (erythrocytes), at 100 µg/mL, read-out: Activity
Salmonella typhimurium [2] = test: Antibacterial activity against Salmonella typhimurium incubated for 16 to 20 hrs; format: functional, Salmonella enterica subsp. enterica serovar Typhimurium; conditions: Salmonella enterica; time 16-20 hrs
Streptococcus agalactiae [3] = test: Bactericidal activity against Streptococcus agalactiae incubated overnight; format: functional
Vibrio alginolyticus [4] = test: Antibacterial activity against Vibrio alginolyticus incubated for 16 to 20 hrs; format: functional; conditions: time 16-20 hrs
Klebsiella pneumoniae [5] = test: Antibacterial activity against NDM Klebsiella pneumoniae incubated for 16 to 20 hrs; format: functional; conditions: time 16-20 hrs
Klebsiella oxytoca [6] = test: Antibacterial activity against Klebsiella oxytoca incubated for 16 to 20 hrs; format: functional; conditions: time 16-20 hrs
Klebsiella aerogenes [7] = test: Bactericidal activity against Enterobacter aerogenes incubated overnight; format: functional
Edwardsiella tarda [8] = test: Antibacterial activity against Edwardsiella tarda incubated for 16 to 20 hrs; format: functional; conditions: time 16-20 hrs
Vibrio vulnificus [9] = test: Antibacterial activity against Vibrio vulnificus V2 incubated for 16 to 20 hrs; format: functional; conditions: time 16-20 hrs
[10] = test system: Staphylococcus haemolyticus; test: Antibacterial activity against Staphylococcus haemolyticus incubated for 16 to 20 hrs; format: functional; conditions: time 16-20 hrs
Nakaseomyces glabratus [11] = test: Fungicidal activity against Candida glabrata incubated overnight; format: functional
Vibrio vulnificus [12] = test: Antibacterial activity against Vibrio vulnificus V3 incubated for 16 to 20 hrs; format: functional; conditions: time 16-20 hrs
Enterococcus faecium [13] = test: Bactericidal activity against Enterococcus faecium incubated overnight; format: functional
Vibrio harveyi [14] = test: Antibacterial activity against Vibrio harveyi incubated for 16 to 20 hrs; format: functional; conditions: time 16-20 hrs
Candida tropicalis [15] = test: Antifungal activity against Candida tropicalis incubated for 16 to 20 hrs; format: functional; conditions: time 16-20 hrs
Vibrio anguillarum [16] = test: Antibacterial activity against Listonella anguillarum incubated for 16 to 20 hrs; format: functional; conditions: time 16-20 hrs
Vibrio vulnificus [17] = test: Antibacterial activity against Vibrio vulnificus 204 incubated for 16 to 20 hrs; format: functional; conditions: time 16-20 hrs
Aeromonas hydrophila [18] = test: Antibacterial activity against Aeromonas hydrophila incubated for 16 to 20 hrs; format: functional; conditions: time 16-20 hrs
Klebsiella pneumoniae [19] = test: Bactericidal activity against NDM Klebsiella pneumoniae incubated overnight; format: functional
Escherichia coli [20] = test: Bactericidal activity against Escherichia coli incubated overnight; format: functional
Salmonella enterica [21] = test: Bactericidal activity against Salmonella enterica incubated overnight; format: functional
Pseudomonas aeruginosa [22] = test: Antibacterial activity against Pseudomonas aeruginosa incubated for 16 to 20 hrs; format: functional; conditions: time 16-20 hrs
Streptococcus iniae [23] = test: Bactericidal activity against Streptococcus iniae incubated overnight; format: functional
Vibrio vulnificus [24] = test: Bactericidal activity against Vibrio vulnificus 204 incubated overnight; format: functional
Klebsiella aerogenes [25] = test: Antibacterial activity against Enterobacter aerogenes incubated for 16 to 20 hrs; format: functional; conditions: time 16-20 hrs
[26] = test system: Staphylococcus haemolyticus; test: Bactericidal activity against Staphylococcus haemolyticus incubated overnight; format: functional
Pseudomonas aeruginosa [27] = test: Bactericidal activity against Pseudomonas aeruginosa incubated overnight; format: functional
Vibrio vulnificus [28] = test: Antibacterial activity against Vibrio vulnificus V1 incubated for 16 to 20 hrs; format: functional; conditions: time 16-20 hrs
Candida tropicalis [29] = test: Fungicidal activity against Candida tropicalis incubated overnight; format: functional
Vibrio vulnificus [30] = test: Bactericidal activity against Vibrio vulnificus V1 incubated overnight; format: functional
Escherichia coli [31] = test: Antibacterial activity against Escherichia coli incubated for 16 to 20 hrs; format: functional; conditions: time 16-20 hrs
Vibrio alginolyticus [32] = test: Bactericidal activity against Vibrio alginolyticus incubated overnight; format: functional
Streptococcus iniae [33] = test: Antibacterial activity against Streptococcus iniae incubated for 16 to 20 hrs; format: functional; conditions: time 16-20 hrs
Vibrio vulnificus [34] = test: Bactericidal activity against Vibrio vulnificus V2 incubated overnight; format: functional
Vibrio harveyi [35] = test: Bactericidal activity against Vibrio harveyi incubated overnight; format: functional
Salmonella typhimurium [36] = test: Bactericidal activity against Salmonella typhimurium incubated overnight; format: functional, Salmonella enterica subsp. enterica serovar Typhimurium; conditions: Salmonella enterica
Aeromonas hydrophila [37] = test: Bactericidal activity against Aeromonas hydrophila incubated overnight; format: functional
Vibrio anguillarum [38] = test: Bactericidal activity against Listonella anguillarum incubated overnight; format: functional
Klebsiella oxytoca [39] = test: Bactericidal activity against Klebsiella oxytoca incubated overnight; format: functional
Enterococcus faecium [40] = test: Antibacterial activity against Enterococcus faecium incubated for 16 to 20 hrs; format: functional; conditions: time 16-20 hrs
Salmonella enterica [41] = test: Antibacterial activity against Salmonella enterica incubated for 16 to 20 hrs; format: functional; conditions: time 16-20 hrs
Enterococcus faecalis [42] = test: Bactericidal activity against Enterococcus faecalis incubated overnight; format: functional
Edwardsiella tarda [43] = test: Bactericidal activity against Edwardsiella tarda incubated overnight; format: functional
Streptococcus agalactiae [44] = test: Antibacterial activity against Streptococcus agalactiae incubated for 16 to 20 hrs; format: functional; conditions: time 16-20 hrs
Vibrio vulnificus [45] = test: Bactericidal activity against Vibrio vulnificus V3 incubated overnight; format: functional
Nakaseomyces glabratus [46] = test: Antifungal activity against Candida glabrata incubated for 16 to 20 hrs; format: functional; conditions: time 16-20 hrs
Enterococcus faecalis [47] = test: Antibacterial activity against Enterococcus faecalis incubated for 16 to 20 hrs; format: functional; conditions: time 16-20 hrs

Substance: H-FKWKSVLKIVDIFVDIYF-OH
- MBC (Acinetobacter baumannii): > 100 µg/mL
- MBC (Staphylococcus aureus): > 100 µg/mL
- hemolysis at 1 h, 100 ug/ml [1]: 67.8%

Substance: H-FKWKSVLKIVKIFVDIYF-OH
- MBC (Acinetobacter baumannii): > 100 µg/mL
- MBC (Staphylococcus aureus): > 100 µg/mL
- hemolysis at 1 h, 100 ug/ml [1]: 48.1%

Substance: H-FKWKSVLKIVKIFVKIYF-OH
- MBC (Acinetobacter baumannii): 12.5 µg/mL
- MBC (Staphylococcus aureus): > 100 µg/mL
- hemolysis at 1 h, 100 ug/ml [1]: 14.2%

Substance: H-GECIWDAIFHGAKHFLHRLVNP-OH
- MBC (Acinetobacter baumannii): > 100 µg/mL
- MBC (Staphylococcus aureus): > 100 µg/mL
- hemolysis at 1 h, 100 ug/ml [1]: 28.5%

Substance: H-GKCIAKAIFKGAKKFLKKLVNP-OH
- MBC (Acinetobacter baumannii): 3.12 µg/mL
- MBC (Staphylococcus aureus): > 100 µg/mL
- hemolysis at 1 h, 100 ug/ml [1]: 16.7%

Substance: H-GKCIAKAIFKGAKKLLKKLVNP-OH
- MBC (Acinetobacter baumannii): 3.12 µg/mL
- MBC (Staphylococcus aureus): 100 µg/mL
- hemolysis at 1 h, 100 ug/ml [1]: 25.8%

Substance: H-GKCIAKAILKGAKKLLKKLVNP-OH
- MBC (Acinetobacter baumannii): 1.56 µg/mL
- MBC (Staphylococcus aureus): 100 µg/mL
- hemolysis at 1 h, 100 ug/ml [1]: 31.8%

Substance: H-GKCIWKAIFKGAKKFLKKLVNP-OH
- MBC (Acinetobacter baumannii): 1.56 µg/mL
- MBC (Staphylococcus aureus): 50 µg/mL
- hemolysis at 1 h, 100 ug/ml [1]: 72.4%

Substance: H-KKCIAKAILKKADDLLDDLVNP-OH
- MBC (Acinetobacter baumannii): > 100 µg/mL
- MBC (Staphylococcus aureus): > 100 µg/mL
- hemolysis at 1 h, 100 ug/ml [1]: 0%

Substance: H-KKCIAKAILKKAKDLLDDLVNP-OH
- MBC (Acinetobacter baumannii): 50 µg/mL
- MBC (Staphylococcus aureus): > 100 µg/mL
- hemolysis at 1 h, 100 ug/ml [1]: 0%

Substance: H-KKCIAKAILKKAKKLLDDLVNP-OH
- MBC (Acinetobacter baumannii): 6.25 µg/mL
- MBC (Staphylococcus aureus): > 100 µg/mL
- hemolysis at 1 h, 100 ug/ml [1]: 0%

Substance: H-KKCIAKAILKKAKKLLKDLVNP-OH
- MIC (Salmonella typhimurium [2]): 100 µg/mL
- MBC (Streptococcus agalactiae [3]): 3.12 µg/mL
- MBC (Acinetobacter baumannii): 1.56 µg/mL
- MIC (Vibrio alginolyticus [4]): 6.25 µg/mL
- MIC (Klebsiella pneumoniae [5]): 50 µg/mL
- MIC (Klebsiella oxytoca [6]): 50 µg/mL
- MBC (Klebsiella aerogenes [7]): 12.5 µg/mL
- MIC (Edwardsiella tarda [8]): > 100 µg/mL
- MIC (Vibrio vulnificus [9]): 12.5 µg/mL
- MIC [10]: < 1.56 µg/mL
- MFC (Nakaseomyces glabratus [11]): > 100 µg/mL
- MIC (Vibrio vulnificus [12]): 12.5 µg/mL
- MBC (Enterococcus faecium [13]): > 100 µg/mL
- MIC (Vibrio harveyi [14]): > 100 µg/mL
- MIC (Candida tropicalis [15]): > 100 µg/mL
- MIC (Vibrio anguillarum [16]): 50 µg/mL
- MIC (Vibrio vulnificus [17]): 12.5 µg/mL
- MIC (Aeromonas hydrophila [18]): > 100 µg/mL
- MBC (Klebsiella pneumoniae [19]): 50 µg/mL
- MBC (Escherichia coli [20]): 50 µg/mL
- MBC (Salmonella enterica [21]): 25 µg/mL
- MIC (Pseudomonas aeruginosa [22]): 100 µg/mL
- MBC (Streptococcus iniae [23]): 3.12 µg/mL
- MBC (Vibrio vulnificus [24]): 12.5 µg/mL
- MIC (Klebsiella aerogenes [25]): 12.5 µg/mL
- MBC [26]: < 1.56 µg/mL
- MBC (Pseudomonas aeruginosa [27]): > 100 µg/mL
- MIC (Vibrio vulnificus [28]): 12.5 µg/mL
- MFC (Candida tropicalis [29]): > 100 µg/mL
- MBC (Vibrio vulnificus [30]): 12.5 µg/mL
- MIC (Escherichia coli [31]): 50 µg/mL
- MBC (Vibrio alginolyticus [32]): 6.25 µg/mL
- MIC (Streptococcus iniae [33]): 3.12 µg/mL
- MBC (Vibrio vulnificus [34]): 12.5 µg/mL
- MBC (Vibrio harveyi [35]): > 100 µg/mL
- MBC (Staphylococcus aureus): > 100 µg/mL
- MBC (Salmonella typhimurium [36]): 100 µg/mL
- MBC (Aeromonas hydrophila [37]): > 100 µg/mL
- MBC (Vibrio anguillarum [38]): 100 µg/mL
- MBC (Klebsiella oxytoca [39]): 50 µg/mL
- MIC (Enterococcus faecium [40]): > 100 µg/mL
- MIC (Salmonella enterica [41]): 25 µg/mL
- MBC (Enterococcus faecalis [42]): > 100 µg/mL
- MBC (Edwardsiella tarda [43]): > 100 µg/mL
- MIC (Streptococcus agalactiae [44]): 3.12 µg/mL
- hemolysis at 1 h, 100 ug/ml [1]: 3.7%
- MBC (Vibrio vulnificus [45]): 12.5 µg/mL
- MIC (Nakaseomyces glabratus [46]): > 100 µg/mL
- MIC (Enterococcus faecalis [47]): 50 µg/mL
